Publication PMC5652740, “Inhibition of HIV-1 infection in humanized mice and metabolic stability of protein phosphatase-1-targeting small molecule 1E7-03” (Oncotarget, 2017)
Where two headings read alike, the source gives them in different places.

Tests used:
[1] = tested on: HIV-1-LUC-G; test: Single round HIV-1 replication, luciferase readout in CEM T cells; assay type: cell-based; conditions: Human immunodeficiency virus 1, T-cell
Method: CEM T cells were infected with VSVG-pseudotyped pNL4-3.Luc.R-E-virus (HIV-1-LUC-G) prepared as previously described and cultured in 96-well white plates ( 1.25 × 10^6 cells/ml, 100 μl/well) at 37°C and 5% CO2. The cells were treated with serial dilutions of the compounds or vehicle (DMSO) and incubated overnight. At 24 hrs post infection, 100 μl of reconstituted luciferase buffer (Luclite Kit, Perkin Elmer) was added to each well, incubated for 10 min and luminescence was measured using Glo-Max Microplate Multimode reader (Promega).

[2] = target: T1, PP1 (Homo sapiens, UniProt P62136); test: SPR competition with pRb-Tat peptide for binding to PP1; conditions: compounds at 1 μM; for fold reduction of the binding of pRb-Tat to PP1: pRb-Tat 10-100 nM
T1 construct: human PP1α (residues 7–300); His; made in house; host or cells: BL21 (DE3) Escherichia coli, co-expressed with GroEL/GroES chaperones
T1 sequence (P62136 7-300): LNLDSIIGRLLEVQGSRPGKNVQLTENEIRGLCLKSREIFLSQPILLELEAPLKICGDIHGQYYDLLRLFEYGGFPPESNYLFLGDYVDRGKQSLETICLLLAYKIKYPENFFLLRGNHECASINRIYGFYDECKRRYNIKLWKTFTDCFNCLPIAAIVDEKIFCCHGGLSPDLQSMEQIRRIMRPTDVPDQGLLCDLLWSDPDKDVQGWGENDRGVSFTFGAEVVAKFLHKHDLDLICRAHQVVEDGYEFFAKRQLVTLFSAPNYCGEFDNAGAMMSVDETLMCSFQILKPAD
Method: The SPR measurements were conducted on Biacore T200 instrument (GE Healthcare, Piscataway, NJ) at 25°C. Recombinant PP1 was immobilized on a CM5 chip by amine coupling (GE Healthcare). PP1 (200 nM) was captured on flow cell 2 in 10 mM acetate buffer, pH 5.0, supplemented with 2 mM MnCl2. The average amount of PP1 immobilized on the surface was 3160 RU. Flow cell 1 was used as a reference surface to subtract background signal. Also injections of the buffer alone were used to provide double reference subtraction. To measure the direct binding of small molecules to PP1, the two flow cells of the sensor chip were primed with running buffer (0.01 M HEPES pH 7.4, 0.15 M NaCl, 0.005% v/v Surfactant P20, 1% DMSO and 2 mM MnCl2). For binding and kinetics experiments, all compounds were diluted in the running buffer, at 40 μM, 20 μM, 10 μM, 5 μM, 2.5 μM, 1.25 μM and 0 μM and then passed over the two flow cells at a flow rate of 100 μl/min for 60 sec. The number of response units was recorded after the subtraction of the reference flow cell's value (Fc2-1). Two repetitions were performed for each injection. Data were analyzed using the BiaEvaluation software of Biacore with a 1:1 binding model. […] All the small molecular weight compounds were used at 1 μM.

[3] = tested on: HIV-1 env and gag mRNA; test: HIV-1 env and gag mRNA expression by real-time RT-PCR in infected CEM T cells; assay type: cell-based; conditions: 10 μM 1E7-03, DP1, DP3; 5 μM AZT, 3TC; in words
Method: For quantitative analysis of HIV-1 RNA, CEM T cells were infected with HIV-1-LUC-G virus. Cells were treated with 10 μM 1E7-03, 10 μM DP1, 10 μM DP3, 5 μM AZT or 5 μM 3TC and control cells were untreated or treated with DMSO. Total RNA was isolated using Trizol Reagent (Invitrogen, Carlsbad, CA) according to the manufacturer's protocol. Total RNA (100 ng) was reverse transcribed to cDNA using Superscript™ RT-PCR kit (Invitrogen, Carlsbad, CA). Hexamers and oligo-dT were used as primers. For real-time PCR analysis, cDNA was amplified using Roche LightCycler 480 (Roche Diagnostics) and SYBR Green1 Master mix (Roche Diagnostics). PCR was run for 45 cycles and each cycle included denaturation at 95°C for 10 seconds, annealing at 60°C for 10 seconds, and extension at 72°C for 10 seconds. Quantification of env and gag was carried using 18S RNA as a normalization standard. Quantification of housekeeping genes, β-actin and RSP13 was carried relative to 18S RNA. Mean Cp values were determined and ΔΔCt method was used to calculate relative expression levels. Unpaired t-test was used to test statistical significance.
The following primer sequences were used: env, forward - […], reverse-[…]; gag, forward- […], reverse- […]; β-actin, forward- […], reverse-[…]; RSP13, forward- […], reverse- […]; and 18SrRNA, forward- […], reverse- […].

[4] = read-out: One round HIV-1 infection IC50, CEM T cells, HIV-1-LUC-G, Figure 4A
[5] = read-out: One round HIV-1 infection IC50, CEM T cells, HIV-1-LUC-G, Figure 7D

| Compound | IC50 [1, 4] [µM] | IC50 [1, 5] [µM] | fold reduction of the binding of pRb-Tat to PP1 [2] | HIV-1 env mRNA expression [3] | HIV-1 gag mRNA expression [3] | competition with pRb-Tat for binding to PP1 ([2]; in words) |
| --- | --- | --- | --- | --- | --- | --- |
| CCNC(=O)NC(=O)C(C)OC(=O)c1c2c(nc3ccccc13)/C(=C/c1ccc(OC)c(OC)c1)CC2 (stereo not drawn) [1E7-03] | 1.7 | 2 | 2-2.5 fold | significantly reduced | significantly reduced | – |
| COc1ccc(/C=C2\CCCc3c2nc2ccccc2c3C(=O)OC(C)C(=O)OC(C)(C)C)cc1OC (stereo not drawn) [DP1-07] | – | > 66 | – | – | – | – |
| COc1ccc(/C=C2\CCc3c2nc2ccccc2c3C(=O)OC(C)C(=O)O)cc1OC (stereo not drawn) [DP1] | 17 | – | 10 fold | not affected | not affected | best competitor |
| COc1ccc(/C=C2\CCc3c2nc2ccccc2c3C(=O)O)cc1OC [DP3] | > 180 | – | 2-2.5 fold | not affected | not affected | – |
